In patent US20220169598A1, “HALOGENATED PHENYLSULFONAMIDE HYDROXAMIC ACID COMPOUNDS, COMPOSITIONS AND USES THEREOF AS SELECTIVE HDAC6 INHIBITORS” (2681603 ONTARIO INC., priority 2019, published 2022):

What was measured:
MV-4-11 = test: Apoptosis induction by FACS (FITC-Annexin V / PI); type: cell-based; conditions: MV-4-11, increasing concentration of inhibitor
HDAC9 = HDAC9 (Homo sapiens, UniProt Q9UKV0); test: in vitro activity-based HDAC assay; type: biochemical; conditions: human HDAC isoform panel, Table 1
Sequence of HDAC9 (Q9UKV0 whole entry, canonical isoform): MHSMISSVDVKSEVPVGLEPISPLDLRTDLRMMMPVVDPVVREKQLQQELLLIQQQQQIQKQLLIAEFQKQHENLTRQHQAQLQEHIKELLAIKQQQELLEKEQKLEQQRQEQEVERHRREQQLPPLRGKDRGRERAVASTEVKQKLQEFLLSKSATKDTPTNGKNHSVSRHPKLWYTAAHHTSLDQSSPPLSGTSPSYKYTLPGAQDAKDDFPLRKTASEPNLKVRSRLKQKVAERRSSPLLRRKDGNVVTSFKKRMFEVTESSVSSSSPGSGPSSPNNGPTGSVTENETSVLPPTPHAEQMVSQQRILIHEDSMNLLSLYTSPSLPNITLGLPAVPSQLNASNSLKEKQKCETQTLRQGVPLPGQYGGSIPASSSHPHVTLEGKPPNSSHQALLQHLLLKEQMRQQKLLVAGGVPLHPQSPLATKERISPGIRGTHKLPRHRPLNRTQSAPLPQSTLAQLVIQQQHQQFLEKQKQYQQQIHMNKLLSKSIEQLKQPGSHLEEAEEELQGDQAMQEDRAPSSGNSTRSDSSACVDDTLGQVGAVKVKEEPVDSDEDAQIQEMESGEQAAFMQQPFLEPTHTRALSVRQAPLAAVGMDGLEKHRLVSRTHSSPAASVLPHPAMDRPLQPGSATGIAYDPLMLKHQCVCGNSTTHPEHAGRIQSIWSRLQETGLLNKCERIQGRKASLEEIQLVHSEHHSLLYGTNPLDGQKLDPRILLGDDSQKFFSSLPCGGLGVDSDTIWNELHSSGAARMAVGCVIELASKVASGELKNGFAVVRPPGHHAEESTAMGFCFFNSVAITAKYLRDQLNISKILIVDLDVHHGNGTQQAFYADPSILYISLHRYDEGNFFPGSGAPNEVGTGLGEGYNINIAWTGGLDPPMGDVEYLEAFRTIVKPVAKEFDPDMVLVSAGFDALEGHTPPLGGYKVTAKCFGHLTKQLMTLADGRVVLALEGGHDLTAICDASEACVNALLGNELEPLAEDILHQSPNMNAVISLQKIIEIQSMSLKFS

HDAC10 = biological target: T1, HDAC10 (Homo sapiens, UniProt Q969S8); test: in vitro activity-based HDAC assay; type: biochemical; conditions: human HDAC isoform panel, Table 1
T1 sequence (Q969S8 1-669): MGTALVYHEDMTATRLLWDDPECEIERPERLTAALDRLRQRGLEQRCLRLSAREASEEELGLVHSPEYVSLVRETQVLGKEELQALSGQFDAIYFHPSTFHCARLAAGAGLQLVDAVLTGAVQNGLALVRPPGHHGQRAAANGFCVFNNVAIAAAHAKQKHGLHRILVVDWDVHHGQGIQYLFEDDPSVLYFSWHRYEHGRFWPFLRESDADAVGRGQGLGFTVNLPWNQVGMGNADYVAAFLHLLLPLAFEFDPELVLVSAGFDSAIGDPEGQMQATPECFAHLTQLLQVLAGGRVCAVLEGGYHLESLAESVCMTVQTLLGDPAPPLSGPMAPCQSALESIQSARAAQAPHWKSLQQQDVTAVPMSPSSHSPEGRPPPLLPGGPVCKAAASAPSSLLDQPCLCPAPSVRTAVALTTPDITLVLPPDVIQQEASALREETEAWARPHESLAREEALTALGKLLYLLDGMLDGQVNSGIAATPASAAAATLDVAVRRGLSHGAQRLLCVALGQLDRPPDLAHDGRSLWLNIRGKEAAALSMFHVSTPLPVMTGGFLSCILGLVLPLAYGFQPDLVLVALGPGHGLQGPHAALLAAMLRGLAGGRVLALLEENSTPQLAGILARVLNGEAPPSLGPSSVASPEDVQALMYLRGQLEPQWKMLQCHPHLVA

HDAC6 = biological target: T2, HDAC6 (Homo sapiens, UniProt Q9UBN7); test: in vitro activity-based HDAC assay; type: biochemical; conditions: human HDAC isoform panel, Table 1; read-out: IC50 HDAC6
T2 sequence (Q9UBN7 1-1215): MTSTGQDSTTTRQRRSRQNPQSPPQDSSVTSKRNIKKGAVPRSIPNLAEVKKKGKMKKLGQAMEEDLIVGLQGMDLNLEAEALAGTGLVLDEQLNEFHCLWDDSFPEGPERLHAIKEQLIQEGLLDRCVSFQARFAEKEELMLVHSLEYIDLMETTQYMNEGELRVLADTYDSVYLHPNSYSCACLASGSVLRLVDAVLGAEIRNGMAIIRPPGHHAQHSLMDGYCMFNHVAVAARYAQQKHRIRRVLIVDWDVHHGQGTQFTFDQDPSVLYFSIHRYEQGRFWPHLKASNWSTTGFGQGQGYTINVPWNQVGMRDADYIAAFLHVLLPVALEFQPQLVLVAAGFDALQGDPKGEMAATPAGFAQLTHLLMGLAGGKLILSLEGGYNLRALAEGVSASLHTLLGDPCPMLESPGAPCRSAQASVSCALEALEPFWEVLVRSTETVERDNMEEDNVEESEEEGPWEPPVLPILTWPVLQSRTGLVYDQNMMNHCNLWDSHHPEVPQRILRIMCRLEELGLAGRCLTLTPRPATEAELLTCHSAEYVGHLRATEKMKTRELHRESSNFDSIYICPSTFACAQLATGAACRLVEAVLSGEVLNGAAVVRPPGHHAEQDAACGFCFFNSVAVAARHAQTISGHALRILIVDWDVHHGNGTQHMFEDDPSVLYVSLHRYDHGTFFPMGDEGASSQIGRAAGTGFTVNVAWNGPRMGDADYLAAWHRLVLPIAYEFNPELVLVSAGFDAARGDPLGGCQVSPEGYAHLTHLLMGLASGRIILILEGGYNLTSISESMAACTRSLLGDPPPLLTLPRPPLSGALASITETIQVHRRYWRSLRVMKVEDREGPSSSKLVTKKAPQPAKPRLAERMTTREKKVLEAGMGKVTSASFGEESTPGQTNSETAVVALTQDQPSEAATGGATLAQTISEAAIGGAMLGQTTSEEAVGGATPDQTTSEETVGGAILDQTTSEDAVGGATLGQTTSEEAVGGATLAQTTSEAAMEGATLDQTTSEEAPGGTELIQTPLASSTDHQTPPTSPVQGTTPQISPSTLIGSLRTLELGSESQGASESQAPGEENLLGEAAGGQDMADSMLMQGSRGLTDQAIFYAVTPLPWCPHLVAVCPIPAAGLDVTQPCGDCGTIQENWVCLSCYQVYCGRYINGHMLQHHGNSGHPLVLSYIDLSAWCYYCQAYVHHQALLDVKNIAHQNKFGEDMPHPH

HDAC4 = HDAC4 (Homo sapiens, UniProt P56524); test: in vitro activity-based HDAC assay; type: biochemical; conditions: human HDAC isoform panel, Table 1
Sequence of HDAC4 (P56524 whole entry, canonical isoform): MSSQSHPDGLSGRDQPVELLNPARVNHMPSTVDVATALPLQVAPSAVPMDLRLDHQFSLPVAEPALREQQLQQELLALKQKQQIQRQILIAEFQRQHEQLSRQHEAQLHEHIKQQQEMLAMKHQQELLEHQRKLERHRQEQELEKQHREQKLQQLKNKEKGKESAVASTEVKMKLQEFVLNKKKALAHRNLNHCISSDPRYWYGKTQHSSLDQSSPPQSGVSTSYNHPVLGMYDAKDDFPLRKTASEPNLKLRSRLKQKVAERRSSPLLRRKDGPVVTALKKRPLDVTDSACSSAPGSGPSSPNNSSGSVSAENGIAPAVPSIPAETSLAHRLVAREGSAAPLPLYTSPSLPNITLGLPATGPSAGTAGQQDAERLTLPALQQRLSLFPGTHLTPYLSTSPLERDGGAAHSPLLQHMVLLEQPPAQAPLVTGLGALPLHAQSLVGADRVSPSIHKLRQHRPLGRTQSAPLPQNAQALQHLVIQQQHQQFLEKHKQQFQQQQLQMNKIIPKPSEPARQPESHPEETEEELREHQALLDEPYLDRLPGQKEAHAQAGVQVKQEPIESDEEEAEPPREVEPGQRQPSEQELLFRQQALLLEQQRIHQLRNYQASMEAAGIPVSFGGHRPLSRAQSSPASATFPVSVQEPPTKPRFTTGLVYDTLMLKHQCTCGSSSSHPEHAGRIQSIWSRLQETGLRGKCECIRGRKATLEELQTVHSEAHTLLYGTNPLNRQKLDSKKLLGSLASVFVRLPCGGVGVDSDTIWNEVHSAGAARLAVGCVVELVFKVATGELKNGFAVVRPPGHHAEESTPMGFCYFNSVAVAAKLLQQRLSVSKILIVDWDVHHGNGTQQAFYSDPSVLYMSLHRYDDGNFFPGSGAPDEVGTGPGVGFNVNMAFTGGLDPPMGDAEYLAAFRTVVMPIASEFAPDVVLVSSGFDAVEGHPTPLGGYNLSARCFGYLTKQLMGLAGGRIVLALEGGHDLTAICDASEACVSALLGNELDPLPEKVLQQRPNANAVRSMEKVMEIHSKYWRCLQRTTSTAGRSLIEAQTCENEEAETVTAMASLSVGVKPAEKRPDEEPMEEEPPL

HDAC2 = HDAC2 (Homo sapiens, UniProt Q92769); test: in vitro activity-based HDAC assay; type: biochemical; conditions: human HDAC isoform panel, Table 1
Sequence of HDAC2 (Q92769 whole entry, canonical isoform): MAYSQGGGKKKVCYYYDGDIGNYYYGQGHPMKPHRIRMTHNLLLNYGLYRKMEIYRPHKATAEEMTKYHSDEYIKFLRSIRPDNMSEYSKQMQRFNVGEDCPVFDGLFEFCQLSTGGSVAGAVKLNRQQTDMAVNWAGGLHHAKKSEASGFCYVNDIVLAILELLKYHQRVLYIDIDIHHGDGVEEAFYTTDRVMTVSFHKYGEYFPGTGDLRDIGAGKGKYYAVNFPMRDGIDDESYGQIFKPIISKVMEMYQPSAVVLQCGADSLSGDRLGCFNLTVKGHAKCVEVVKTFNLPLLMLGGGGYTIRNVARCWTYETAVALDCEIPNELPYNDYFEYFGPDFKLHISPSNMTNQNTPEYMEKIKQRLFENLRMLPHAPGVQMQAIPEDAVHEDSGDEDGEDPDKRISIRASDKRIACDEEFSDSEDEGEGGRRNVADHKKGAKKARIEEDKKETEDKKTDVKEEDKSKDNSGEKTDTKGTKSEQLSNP

[1] = Kinetic solubility by analytical HPLC; type: physicochemical; conditions: PBS with 5% (v/v) DMSO, aqueous with cosolvent or surfactant or cyclodextrin, kinetic from dmso stock; PBS + 5% DMSO; initial concentration 300 μM; read-out: Saturation Concentration
Method: The initial concentration of each exemplary compound was 300 μM.

| Structure (SMILES) | apoptotic-inducting potential (FACS) (MV-4-11) | IC50 (HDAC9) | IC50 (HDAC10) | IC50 (HDAC6) | IC50 (HDAC4) | IC50 (HDAC2) | solubility kinetic [1] |
| --- | --- | --- | --- | --- | --- | --- | --- |
| O=C(NO)c1ccc(CN(Cc2cccnc2)S(=O)(=O)c2cc(F)c(F)c(F)c2F)cc1 [Compound I-18, N-hydroxy-4-((2,3,4,5-tetrafluoro-N-(pyridin-3-ylmethyl)phenylsulfonamido)methyl)benzamide] | larger populations of cells undergoing early apoptosis | > 1000 nM | 551 nM | 2 nM | > 1000 nM | > 1000 nM | 142 ± 2.4 µM |
| O=C(NO)c1ccc(CN(C2CC2)S(=O)(=O)c2cc(F)c(F)c(F)c2F)cc1 [Compound I-13, 4-((N-cyclopropyl-2,3,4,5-tetrafluorophenylsulfonamido)methyl)-N-hydroxybenzamide] | larger populations of cells undergoing early apoptosis | > 1000 nM | > 1000 nM | 9 nM | > 1000 nM | > 1000 nM | 88.1 ± 1.6 µM |
